Experimental data from the Kinase Knowledgebase extract (Sharma et al. 2016).

Key:
Test in all cases: Enzyme Assay
PIK3CA (human) = PIK3CA (human) (UniProt P42336)
PIK3CB (Human) = PIK3CB (Human) (UniProt P42338)
PIK3CD (Human) = PIK3CD (Human) (UniProt O00329)
Chain of PIK3CD (Human) (O00329 whole entry, looked up): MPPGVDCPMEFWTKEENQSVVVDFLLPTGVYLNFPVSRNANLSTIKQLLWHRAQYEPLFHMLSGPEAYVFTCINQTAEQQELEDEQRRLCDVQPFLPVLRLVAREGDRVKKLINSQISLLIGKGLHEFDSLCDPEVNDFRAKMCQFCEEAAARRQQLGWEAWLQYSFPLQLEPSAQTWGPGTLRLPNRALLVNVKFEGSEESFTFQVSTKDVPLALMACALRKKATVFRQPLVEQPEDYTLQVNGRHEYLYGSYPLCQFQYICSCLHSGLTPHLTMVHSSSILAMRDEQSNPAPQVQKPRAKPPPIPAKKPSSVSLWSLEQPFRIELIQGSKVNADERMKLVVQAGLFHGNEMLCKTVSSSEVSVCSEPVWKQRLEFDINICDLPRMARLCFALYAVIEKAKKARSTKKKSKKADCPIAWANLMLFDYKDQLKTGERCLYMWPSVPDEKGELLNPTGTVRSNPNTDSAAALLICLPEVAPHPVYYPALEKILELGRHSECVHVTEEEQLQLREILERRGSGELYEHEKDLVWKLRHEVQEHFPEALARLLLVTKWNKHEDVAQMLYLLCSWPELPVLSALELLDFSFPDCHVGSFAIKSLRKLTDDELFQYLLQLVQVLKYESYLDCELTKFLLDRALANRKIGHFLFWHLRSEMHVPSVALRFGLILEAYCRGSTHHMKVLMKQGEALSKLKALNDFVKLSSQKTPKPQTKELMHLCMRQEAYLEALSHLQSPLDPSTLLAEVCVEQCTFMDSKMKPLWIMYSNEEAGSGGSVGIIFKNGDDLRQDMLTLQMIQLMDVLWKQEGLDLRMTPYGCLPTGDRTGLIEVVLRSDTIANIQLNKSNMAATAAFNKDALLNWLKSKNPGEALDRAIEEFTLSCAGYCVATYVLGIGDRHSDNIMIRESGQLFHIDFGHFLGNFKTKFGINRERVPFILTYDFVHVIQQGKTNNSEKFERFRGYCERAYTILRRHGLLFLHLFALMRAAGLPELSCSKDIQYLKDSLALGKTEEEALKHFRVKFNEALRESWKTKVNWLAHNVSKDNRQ

Chain of PIK3CB (Human) (P42338 whole entry, looked up): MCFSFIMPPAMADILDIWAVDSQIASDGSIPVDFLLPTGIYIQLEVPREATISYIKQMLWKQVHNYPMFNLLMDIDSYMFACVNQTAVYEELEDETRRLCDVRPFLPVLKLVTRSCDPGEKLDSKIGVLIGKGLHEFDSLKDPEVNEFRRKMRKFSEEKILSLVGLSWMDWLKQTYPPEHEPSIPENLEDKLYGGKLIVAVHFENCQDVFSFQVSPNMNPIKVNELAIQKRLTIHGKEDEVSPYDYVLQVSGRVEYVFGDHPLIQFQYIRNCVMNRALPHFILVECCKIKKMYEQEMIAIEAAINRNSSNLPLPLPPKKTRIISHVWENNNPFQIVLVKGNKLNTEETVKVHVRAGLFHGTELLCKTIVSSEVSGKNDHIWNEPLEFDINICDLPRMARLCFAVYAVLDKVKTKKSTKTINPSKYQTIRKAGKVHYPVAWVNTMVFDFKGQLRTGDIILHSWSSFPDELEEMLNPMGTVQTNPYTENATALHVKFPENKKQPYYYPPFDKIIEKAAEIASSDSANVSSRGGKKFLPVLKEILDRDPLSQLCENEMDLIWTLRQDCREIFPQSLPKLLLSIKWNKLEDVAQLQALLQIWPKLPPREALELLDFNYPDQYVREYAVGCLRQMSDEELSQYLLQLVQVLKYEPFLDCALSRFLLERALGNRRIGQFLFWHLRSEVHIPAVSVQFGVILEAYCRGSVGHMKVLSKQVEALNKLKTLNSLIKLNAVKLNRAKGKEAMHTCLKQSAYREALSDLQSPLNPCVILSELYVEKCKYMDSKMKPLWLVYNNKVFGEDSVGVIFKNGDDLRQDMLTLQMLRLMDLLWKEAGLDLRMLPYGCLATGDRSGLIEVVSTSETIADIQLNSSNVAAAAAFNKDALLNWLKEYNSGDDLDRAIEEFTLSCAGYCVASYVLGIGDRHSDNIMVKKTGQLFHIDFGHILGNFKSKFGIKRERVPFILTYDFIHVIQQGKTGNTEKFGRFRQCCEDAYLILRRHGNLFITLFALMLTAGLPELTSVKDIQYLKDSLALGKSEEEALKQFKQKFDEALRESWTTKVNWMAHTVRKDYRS
Chain of PIK3CA (human) (P42336 whole entry, looked up): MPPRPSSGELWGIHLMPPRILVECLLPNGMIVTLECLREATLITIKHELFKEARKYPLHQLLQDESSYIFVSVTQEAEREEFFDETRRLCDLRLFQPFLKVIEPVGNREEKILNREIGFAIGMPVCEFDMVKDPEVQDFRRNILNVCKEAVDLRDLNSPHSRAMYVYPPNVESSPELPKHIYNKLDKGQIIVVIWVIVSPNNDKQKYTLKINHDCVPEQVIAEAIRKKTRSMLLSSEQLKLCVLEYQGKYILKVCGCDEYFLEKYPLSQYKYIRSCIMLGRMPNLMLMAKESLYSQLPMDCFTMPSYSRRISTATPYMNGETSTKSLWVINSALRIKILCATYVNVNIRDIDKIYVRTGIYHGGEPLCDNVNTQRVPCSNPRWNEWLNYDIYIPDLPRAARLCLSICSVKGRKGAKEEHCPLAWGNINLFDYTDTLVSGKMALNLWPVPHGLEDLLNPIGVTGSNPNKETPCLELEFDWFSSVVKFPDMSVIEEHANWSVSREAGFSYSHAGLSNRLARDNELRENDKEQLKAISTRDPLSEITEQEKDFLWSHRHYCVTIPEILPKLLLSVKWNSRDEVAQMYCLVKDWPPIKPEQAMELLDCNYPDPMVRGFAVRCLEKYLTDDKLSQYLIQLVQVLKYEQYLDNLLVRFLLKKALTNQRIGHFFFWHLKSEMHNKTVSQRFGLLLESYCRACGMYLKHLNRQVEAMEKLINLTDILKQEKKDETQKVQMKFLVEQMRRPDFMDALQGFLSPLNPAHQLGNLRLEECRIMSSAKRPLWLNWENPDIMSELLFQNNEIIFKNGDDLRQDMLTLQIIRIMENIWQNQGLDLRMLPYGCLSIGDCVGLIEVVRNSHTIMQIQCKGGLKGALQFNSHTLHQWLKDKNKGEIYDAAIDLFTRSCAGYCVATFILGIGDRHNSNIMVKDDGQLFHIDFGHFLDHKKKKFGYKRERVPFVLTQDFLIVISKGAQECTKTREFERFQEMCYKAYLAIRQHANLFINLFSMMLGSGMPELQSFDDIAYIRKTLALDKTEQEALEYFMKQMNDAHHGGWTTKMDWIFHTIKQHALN

| Compound | IC50 (PIK3CA (human)) | IC50 (PIK3CB (Human)) | IC50 (PIK3CD (Human)) |
| --- | --- | --- | --- |
| Cc1ccccc1-n1c(Cn2nc(-c3ccc(F)c(O)c3)c3c(N)ncnc32)cc2ccccc2c1=O | > 10000 nM | > 10000 nM | – |
| Cc1cccc2cc([C@H](C)Nc3ncnc4[nH]nc(C(N)=O)c34)n(-c3ccccc3)c(=O)c12 | – | < 100 nM | < 100 nM |
| Cc1cccc2cc([C@H](C)Nc3ncnc4[nH]c(Cl)nc34)n(C3CC3)c(=O)c12 | > 10000 nM | > 10000 nM | > 10000 nM |
| CC(=O)Nc1nc2ccc(-c3nn(Cc4cc5cccc(C)c5c(=O)n4-c4ccccc4)c4ncnc(N)c34)cc2[nH]1 | > 10000 nM | > 10000 nM | – |
| Cc1cccc2cc([C@@H](C)Nc3ncnc4[nH]cnc34)n(C3CCC3)c(=O)c12 | > 10000 nM | > 10000 nM | > 10000 nM |
| Cc1cccc2cc(Cn3nc(I)c4c(N)ncnc43)n(C3CCC3)c(=O)c12 | > 10000 nM | > 10000 nM | – |
| Cc1cccc2cc([C@H](C)Nc3ncnc4[nH]cc(C(N)=O)c34)n(C3CC3)c(=O)c12 | 100 to 1000 nM | < 100 nM | < 100 nM |
| Cc1cccc2cc(Cn3nc(I)c4c(N)ncnc43)n(C)c(=O)c12 | > 10000 nM | > 10000 nM | 100 to 1000 nM |
| Cc1cccc2cc(Cn3nc(-c4ccc(O)c(F)c4)c4c(N)ncnc43)n(-c3ccccc3F)c(=O)c12 | > 10000 nM | > 10000 nM | 100 to 1000 nM |
| C[C@H](Nc1ncnc2[nH]cnc12)c1cc2cccc(Cl)c2c(=O)n1C1CC1 | 100 to 1000 nM | < 100 nM | < 100 nM |
| Cc1cccc2cc([C@H](C)Nc3nc(Cl)ncc3Cl)n(-c3ccccc3)c(=O)c12 | > 10000 nM | > 10000 nM | 100 to 1000 nM |
| Cc1cccc2cc(Cn3nc(-c4cccc(O)c4)c4c(N)ncnc43)n(-c3ccccc3)c(=O)c12 | > 10000 nM | > 10000 nM | – |
| Cc1cccc2cc(Cn3nc(-c4cc(O)cc(F)c4)c4c(N)ncnc43)n(-c3ccccc3C(C)C)c(=O)c12 | 100 to 1000 nM | 100 to 1000 nM | – |
| Cc1ccccc1-n1c(Cn2nc(-c3ccc(Cl)c(O)c3)c3c(N)ncnc32)cc2ccccc2c1=O | > 10000 nM | > 10000 nM | – |
| Cc1cccc2cc(Cn3nc(C4=CCOCC4)c4c(N)ncnc43)n(-c3ccccc3)c(=O)c12 | > 10000 nM | > 10000 nM | > 10000 nM |
| Cc1cccc2cc(Cn3nc(-c4cc(O)cc(F)c4)c4c(N)ncnc43)n(-c3ccccc3O)c(=O)c12 | – | 100 to 1000 nM | – |
| Cc1cccc2cc([C@H](C)Nc3cc(N)nc(N)n3)n(C3CC3)c(=O)c12 | > 10000 nM | > 10000 nM | – |
| Cc1cccc2cc(Cn3nc(-c4ccc5sc(N)nc5c4)c4c(N)ncnc43)n(-c3ccccc3)c(=O)c12 | 100 to 1000 nM | 100 to 1000 nM | < 100 nM |

| Compound | IC50 (PIK3CA (human)) | IC50 (PIK3CB (Human)) | IC50 (PIK3CD (Human)) |
| --- | --- | --- | --- |
| Cc1cccc2cc([C@H](C)Nc3ncnc4[nH]ccc34)n(C3CC3)c(=O)c12 | – | < 100 nM | < 100 nM |
| Cc1cccc2cc(Cn3nc(C#C[C@@H](C)O)c4c(N)ncnc43)n(C3CCCCC3)c(=O)c12 | > 10000 nM | > 10000 nM | – |
| Cc1cccc2cc(Cn3nc(-c4ccc(Cl)c(O)c4)c4c(N)ncnc43)n(-c3ccccc3F)c(=O)c12 | > 10000 nM | > 10000 nM | – |
| Cc1cccc2cc(Cn3nc(-c4cccc(O)c4)c4c(N)ncnc43)n(C3CC3)c(=O)c12 | 100 to 1000 nM | 100 to 1000 nM | – |
| Cc1cccnc1-n1c(Cn2nc(-c3ccc(F)c(O)c3)c3c(N)ncnc32)cc2cccc(C)c2c1=O | > 10000 nM | > 10000 nM | – |
| CC(=O)Nc1nc2ccc(-c3nn(Cc4cc5cccc(C)c5c(=O)n4C)c4ncnc(N)c34)cc2s1 | – | 100 to 1000 nM | – |
| CCn1c(Cn2nc(-c3ccc4nc(NC(C)=O)sc4c3)c3c(N)ncnc32)cc2cccc(C)c2c1=O | – | 100 to 1000 nM | – |
| Cc1cccc2cc(Cn3nc(-c4cccc(O)c4)c4c(N)ncnc43)n(C(C)C)c(=O)c12 | > 10000 nM | 100 to 1000 nM | – |
| Cc1cccc2cc(Cn3nc(-c4ccc(F)c(O)c4)c4c(N)ncnc43)n(C3CCCC3)c(=O)c12 | > 10000 nM | > 10000 nM | – |
| Cc1cccc2cc([C@H](C)Nc3ncnc4[nH]cnc34)n(C3CC3)c(=O)c12 | – | < 100 nM | < 100 nM |
| Cc1cccc2cc(C(C)Nc3ncnc4[nH]cnc34)n(C3CC3)c(=O)c12 (configuration not stated) | – | 100 to 1000 nM | < 100 nM |
| Cc1cccc2cc(Cn3nc(I)c4c(N)ncnc43)n(C(C)C)c(=O)c12 | > 10000 nM | > 10000 nM | – |
| CC(=O)Nc1nc2cc(-c3nn(Cc4cc5cccc(C)c5c(=O)n4-c4ccccc4)c4ncnc(N)c34)ccc2o1 | – | < 100 nM | < 100 nM |
| Cc1cccc2cc([C@H](C)Nc3ncnc4[nH]nc(C(N)=O)c34)n(C3CC3)c(=O)c12 | – | < 100 nM | < 100 nM |
| CC(=O)Nc1nc2ccc(-c3nn(Cc4cc5cccc(C)c5c(=O)n4C4CCC4)c4ncnc(N)c34)cc2s1 | – | 100 to 1000 nM | – |
| Cc1cccc2cc([C@H](C)Nc3ncc(C(F)(F)F)c(N)n3)n(-c3ccccc3)c(=O)c12 | > 10000 nM | > 10000 nM | – |
| Cc1ccccc1-n1c(Cn2nc(C#C[C@H](C)O)c3c(N)ncnc32)cc2cccc(C)c2c1=O | > 10000 nM | – | 100 to 1000 nM |

The remaining lines, values ahead:

| IC50 (PIK3CA (human)) | IC50 (PIK3CB (Human)) | IC50 (PIK3CD (Human)) | Compound |
| --- | --- | --- | --- |
| > 10000 nM | > 10000 nM | – | Cc1ccccc1-n1c(Cn2nc(CN3CCOCC3)c3c(N)ncnc32)cc2cccc(C)c2c1=O |
| > 10000 nM | > 10000 nM | – | Cc1cccc2cc(Cn3nc(C(C)C)c4c(N)ncnc43)n(-c3ccccc3)c(=O)c12 |
| 100 to 1000 nM | < 100 nM | < 100 nM | Cc1cccc2cc([C@H](C)Nc3ncnc4[nH]cc(Br)c34)n(-c3ccccc3)c(=O)c12 |
| 100 to 1000 nM | 100 to 1000 nM | < 100 nM | Cc1ccccc1-n1c(Cn2nc(-c3ccc4sc(N)nc4c3)c3c(N)ncnc32)cc2cccc(C)c2c1=O |
| > 10000 nM | > 10000 nM | 100 to 1000 nM | Cc1ccccc1-n1c(Cn2nc(CCC(N)=O)c3c(N)ncnc32)cc2cccc(C)c2c1=O |
| – | > 10000 nM | < 100 nM | Cc1cccc2cc(Cn3nc(CF)c4c(N)ncnc43)n(-c3ccccc3)c(=O)c12 |
| > 10000 nM | > 10000 nM | 100 to 1000 nM | Cc1ccccc1-n1c(Cn2nc(I)c3c(N)ncnc32)cc2cccc(F)c2c1=O |
| > 10000 nM | > 10000 nM | – | Cc1ccccc1-n1c(Cn2nc(C#C[C@@H](C)O)c3c(N)ncnc32)cc2cccc(C)c2c1=O |
| – | 100 to 1000 nM | – | Cc1ccccc1-n1c(Cn2nc(-c3ccc4nc(N)ncc4c3)c3c(N)ncnc32)cc2cccc(C)c2c1=O |
| > 10000 nM | > 10000 nM | > 10000 nM | Cc1cccc2cc([C@H](C)Nc3ncnc4[nH]c(Cl)nc34)n(-c3ccccc3)c(=O)c12 |
| > 10000 nM | > 10000 nM | 100 to 1000 nM | Cc1ccccc1-n1c(Cn2nc(-c3ccn[nH]3)c3c(N)ncnc32)cc2cccc(C)c2c1=O |
| > 10000 nM | > 10000 nM | – | Cc1cccc2cc(Cn3nc(C#C[C@@H](C)O)c4c(N)ncnc43)n(-c3ccccc3O)c(=O)c12 |
| > 10000 nM | > 10000 nM | – | Cc1cccc2cc(Cn3nc(-c4cnn(C)c4)c4c(N)ncnc43)n(-c3ccccc3F)c(=O)c12 |
| > 10000 nM | > 10000 nM | – | Cc1ccccc1-n1c(Cn2nc(C#N)c3c(N)ncnc32)cc2cccc(C)c2c1=O |
| > 10000 nM | > 10000 nM | – | Cc1cccc2cc(Cn3nc(I)c4c(N)ncnc43)n(-c3ccccc3O)c(=O)c12 |
| > 10000 nM | > 10000 nM | – | CCN(Cc1cc2cccc(C)c2c(=O)n1-c1ccccc1C)c1ncnc2[nH]cnc12 |
| > 10000 nM | > 10000 nM | – | CCc1ccccc1-n1c(Cn2nc(-c3cccc(O)c3)c3c(N)ncnc32)cc2cccc(C)c2c1=O |
| – | < 100 nM | < 100 nM | Cc1cccc2cc([C@H](C)Nc3ncnc4[nH]nc(C#N)c34)n(-c3ccccc3)c(=O)c12 |

| IC50 (PIK3CA (human)) | IC50 (PIK3CB (Human)) | IC50 (PIK3CD (Human)) | Compound |
| --- | --- | --- | --- |
| > 10000 nM | > 10000 nM | – | Cc1cccc2cc(Cn3nc(-c4cccc(F)c4)c4c(N)ncnc43)n(-c3ccccc3F)c(=O)c12 |
| > 10000 nM | > 10000 nM | – | Cc1ccccc1-n1c(Cn2nc(-c3cccc(O)c3)c3c(N)ncnc32)cc2cccc(F)c2c1=O |
| – | 100 to 1000 nM | – | CCc1ccccc1-n1c(Cn2nc(-c3cc(O)cc(F)c3)c3c(N)ncnc32)cc2cccc(C)c2c1=O |
| – | 100 to 1000 nM | < 100 nM | CC(=O)Nc1nc2cc(-c3nn(Cc4cc5cccc(C)c5c(=O)n4-c4ccccc4C)c4ncnc(N)c34)ccc2o1 |
| – | < 100 nM | < 100 nM | Cc1cccc2cc([C@H](C)Nc3ncnc4[nH]cc(F)c34)n(-c3ccccc3)c(=O)c12 |
| – | 100 to 1000 nM | – | Cc1cccc2cc(Cn3nc(-c4cn[nH]c4)c4c(N)ncnc43)n(-c3ccccc3C(C)C)c(=O)c12 |
| – | > 10000 nM | – | Cc1ccccc1-n1c(Cn2nc(-c3ccc4ncnc(N)c4c3)c3c(N)ncnc32)cc2cccc(C)c2c1=O |
| > 10000 nM | > 10000 nM | – | Cc1cccc2cc(Cn3nc(C#N)c4c(N)ncnc43)n(-c3ccccc3F)c(=O)c12 |
| > 10000 nM | > 10000 nM | – | Cc1ccccc1-n1c(CN(C)c2ncnc3[nH]cnc23)cc2cccc(C)c2c1=O |
| – | 100 to 1000 nM | < 100 nM | Cc1cccc2cc(C(C)Nc3ncnc4[nH]cnc34)n(-c3ccc(F)cc3)c(=O)c12 (configuration not stated) |
| – | 100 to 1000 nM | – | Cc1cccc2cc(Cn3nc(-c4cc(O)cc(F)c4)c4c(N)ncnc43)n(-c3ccccc3Cl)c(=O)c12 |
| > 10000 nM | > 10000 nM | – | Cc1ccccc1-n1c(Cn2nc(-c3ccc(F)c(O)c3)c3c(N)ncnc32)cc2cccc(F)c2c1=O |
| > 10000 nM | > 10000 nM | – | Cc1ccccc1-n1c(Cn2nc(CCC(=O)N3CCOCC3)c3c(N)ncnc32)cc2cccc(C)c2c1=O |
| – | > 10000 nM | < 100 nM | Cc1ccccc1-n1c(Cn2nc(CF)c3c(N)ncnc32)cc2cccc(C)c2c1=O |
| – | > 10000 nM | < 100 nM | Cc1ccccc1-n1c(Cn2nc(CC#N)c3c(N)ncnc32)cc2cccc(C)c2c1=O |
| > 10000 nM | 100 to 1000 nM | – | Cc1cccc2cc(Cn3nc(-c4cccc(O)c4)c4c(N)ncnc43)n(-c3ccccc3C(C)C)c(=O)c12 |
| – | > 10000 nM | – | CCC(Nc1ncnc2[nH]cnc12)c1cc2cccc(C)c2c(=O)n1-c1c(F)cccc1F (configuration not stated) |
| > 10000 nM | – | > 10000 nM | Cc1cccc2cc(Cn3nc(C(C)(C)O)c4c(N)ncnc43)n(-c3ccccc3)c(=O)c12 |
